Common to all, as to type: cell-based
The nature of data set [1]: Annexin V / SYTOX AADvanced flow cytometry of cell death states. Particulars: human, read-out: viable cells (flow cytometry, Annexin V/SYTOX staining). The procedure:
(§1) The REM-I platform was used to obtain images of cells at different states of dying than one another. More specifically, live, viable Jurkat (T Lymphocyte), Clone E6-1 cells were cultured in RPMI-1640 medium (ThermoFisher Scientific) with 10% fetal bovine serum (FBS) at 37° C. with 5% CO2. A suspension of the cells was prepared at a concentration of 2×10^6 cells/mL for apoptosis and necrosis induction. The following treatments were used to induce cell death (e.g., via apoptosis or necrosis) in different samples of the suspension.
(§2) Sample 2: Camptothecin (ab120115, Abcam), a DNA topoisomerase inhibitor, was administered to the suspension of Jurkat cells at a final concentration of 10 μM and incubated at 37° C. with 5% CO2 for six hours to induce apoptosis by perturbing topoisomerase I.
(§3) Sample 3: Staurosporine (ab120056, Abcam), a protein kinase inhibitor, was administered to the suspension of Jurkat cells at a final concentration of 2 μM and incubated at 37° C. with 5% CO2 for either three hours or for eighteen hours to induce apoptosis by G2/M cell cycle arrest.
(§4) Following treatment, each of the samples was split into two aliquots, one for use in REM-I morphology profiling and one for use in flow cytometry assessment. For morphology profiling, treated cells at a concentration of 3×10^6 cells per mL in a single cell suspension were run on the REM-I platform with a flow rate of about 300 cells/second, and more than about 40,000 images were captured. The data suite 190, described with reference to FIG. 1, was trained using the multi-dimensional feature vectors from the cells and used to generate reduced-dimensionality plots which will be described with reference to FIGS. 16, 17, and 18. For flow cytometry, 1×10^6 treated cells in 100 μL were incubated with 5 μL of PACIFIC BLUE™ Annexin V stock (per manufacturer recommendation) and 1 μL of SYTOX™ AADVANCED™ (A35136, ThermoFisher) for 30 minutes at room temperature and then analyzed with the BD FACSMELODY™ cell sorter and BD FACSCHORUS™ software (BD Biosciences, California).

Data set [2] deals with Jurkat (T Lymphocyte), Clone E6-1 cells. Described as above. The procedure: as §1, §2, §3, §4
For data set [3] the test system is unchanged. Description: REM-I label-free high-dimensional morphology profiling (UMAP). As to conditions: 10 μM camptothecin, 6 hours, unstained brightfield images. Here is the method:
as §1
Sample 2: Camptothecin (ab120115, Abcam), a DNA topoisomerase inhibitor, was administered to the suspension of Jurkat cells at a final concentration of 10 μM and incubated at 37° C. with 5% CO2 for six hours to induce apoptosis by perturbing topoisomerase I. […]
Following treatment, each of the samples was split into two aliquots, one for use in REM-I morphology profiling and one for use in flow cytometry assessment. […] For flow cytometry, 1×10^6 treated cells in 100 μL were incubated with 5 μL of PACIFIC BLUE™ Annexin V stock (per manufacturer recommendation) and 1 μL of SYTOX™ AADVANCED™ (A35136, ThermoFisher) for 30 minutes at room temperature and then analyzed with the BD FACSMELODY™ cell sorter and BD FACSCHORUS™ software (BD Biosciences, California).

Setting [4] is: 2 μM staurosporine, eighteen hours.
[5] abbreviates: 2 μM staurosporine, three hours.

From patent US20250218201A1, “ANALYZING PHENOTYPES OF CELLS” (priority 2023, published 2025) come the findings set out here.

Regarding `CC[C@@]1(O)C(=O)OCc2c1cc1n(c2=O)Cc2cc3ccccc3nc2-1` [Sample 2, Camptothecin], the viability at 6 h, 10 μM in data set [1] (Jurkat (T lymphocyte), Clone E6-1 cells, 10 μM camptothecin, six hours, 37° C.) was 71%. Besides, the “apoptotic cells (flow cytometry, Annexin V/SYTOX staining)” value in data set [2] (10 μM camptothecin, six hours, 37° C.) worked out at 28.7%. The “morphological profile on UMAP compared to healthy cells of Sample 1” value in data set [3] is listed as “morphological shift in the main population”.
Take `CN[C@@H]1C[C@H]2O[C@@](C)([C@@H]1OC)n1c3ccccc3c3c4c(c5c6ccccc6n2c5c31)C(=O)NC4` [staurosporine, Staurosporine]: the viability at 3 h, 2 μM in data set [1] (Jurkat cells, 2 μM staurosporine, three hours) turned out to be 14.5%. Besides, in data set [2] (setting [4]), the “dead cells (flow cytometry, Annexin V/SYTOX staining)” value is 12.4% and the “necrotic cells (flow cytometry, Annexin V/SYTOX staining)” value is reported as 85.0%. Further, in data set [2] (setting [5]), the “apoptotic cells (flow cytometry, Annexin V/SYTOX staining)” value came to 6.96%; the “dead cells (flow cytometry, Annexin V/SYTOX staining)” value was 14.1%; the “necrotic cells (flow cytometry, Annexin V/SYTOX staining)” value is 64.5%.
